What was measured:
[1] = system: diabetes mellitus+NASH model mice; test: Diabetes mellitus + non-alcoholic steatohepatitis (NASH) model; type: in vivo, mouse; settings: for AHDL (high density lipoprotein) / ALDL (low density lipoprotein) / ALT / AST / BUN / CHOL (total cholesterol) / CK / CREA / TGL (triglycerides) / activity of lowering triglycerides (in words) / total cholesterol content in blood (in words): 50 mg/kg intragastric once a day for 28 days; for blood glucose level: 50 mg/kg intragastric once a day for 28 days (FIG. 9); for body fat content (MRI): 50 mg/kg intragastric once a day for 28 days (FIG. 10); for weight ratio of epididymal white fat: 50 mg/kg intragastric once a day for 28 days (FIG. 11); for fat content in liver (Oil red O and H.E. staining): 50 mg/kg intragastric once a day for 28 days (FIGS. 12A-12B); for blood glucose level 14 days after the administration: 50 mg/kg intragastric once a day, day 14
Procedure: Animal model: Each db/db mouse was injected subcutaneously with 40% CCl4 solution (Beijing Tongguang Fine Chemical Co., Ltd.) at a dose of 0.72 mg/100 g for 4 consecutive weeks to obtain a diabetes mellitus+NASH model. In the experiment, 35 of the above model mice were used, and animals with blood glucose of about 7 to 13 mmol/L were selected. According to their blood glucose levels, they were randomly divided into a blank control group, a model group, a BJMU group (gemfibrozil), a BJMU-1 group, a BJMU-2 Group and a BJMU-3 group, 7 animals in each group (the model group and each administration group were modeled according to the animal modeling method). Intragastric administration was adopted with an administration volume of 10 ml/kg. The blank control group and the model group were administrated with 1% Tween 80-saline; the BJMU group was administrated with a dose of 50 mg/kg, the BJMU-1 group was administrated with a dose of 50 mg/kg, the BJMU-2 group was administrated with a dose of 50 mg/kg, and the BJMU-3 group was administrated with a dose of 50 mg/kg. The administration was performed once a day for 28 consecutive days. From the day of oral administration, the physiological changes of the animals were observed every day. Blood glucose was measured every week, and blood glucose difference (Δ) was calculated by the following formula: blood glucose difference (Δ)=the blood glucose of the day—the initial blood glucose (the initial blood glucose difference was zero). After the administration, the animals were sacrificed, and the internal organs and epididymal fat were taken out for experiments. White epididymal fat was taken from each group of mice and weighed. According to the corresponding body weight, the weight ratio of white fat was calculated. Before the mice were sacrificed, 3 mice in each group were randomly selected and subjected to magnetic resonance imaging (MRI) (EchoMRI-700 body fat tester) so as to measure body fat content. For mice in each experimental group, blood was collected and serum was separated, and liver was taken for wet-weight measurement after necropsy; liver tissue was taken and fixed for pathological examination, H.E. staining and oil red O staining (Wuhan Zishan Biotechnology Co., Ltd.) were performed, and mouse liver lesions were observed under light microscope; routine examination of blood was performed by Animal Laboratory Department, Health Science Center of Peking University to measure the following indexes: white blood cell count (WBC), red blood cell count (RBC), lymphocyte count (LY), platelet (PLT) and so on; biochemical laboratory examination of blood was performed by Laboratory Medicine, Third Hospital, Peking University to measure the following indexes: triglycerides (TG), total cholesterol (T-CHO), high-density lipoprotein cholesterol (HDL-C), low-density lipoprotein cholesterol (LDL-C) and so on.

PGC1α = PGC1α mRNA expression by real-time quantitative PCR in HepG2; type: cell-based, human; settings: 1 μM, 6 hours, HepG2 (FIG. 5C)
From the text: Peroxisome proliferation factor activated receptor (PPAR) is an important nuclear receptor that regulates glycolipid metabolism, including three subtypes: α, β/δ and γ. Peroxisome proliferator-activated receptor γ coactivator 1α (PGC-1α) is its auxiliary transcriptional activator. Acyl-CoA oxidase 1 (ACOX1) is the first rate-limiting enzyme for fatty acid β oxidation. Fatty acid binding protein 1 (FABP1) is highly expressed in liver, and can bind fatty acid, heme and other molecules to reduce their toxicity and damage. Up-regulating the expression level of these genes helps to improve the body's metabolism, and their agonists are an important class of anti-metabolic drugs. After the compound of the present application (1 μM) and the control drug gemfibrozil (1 μM) were incubated with human liver cancer cells HepG2 for 6 hours, real-time fluorescent quantitative PCR method was used to determine the relative expression of mRNA of related genes in the cells.
The company which synthesized the primers was Suzhou Hongxun Biotechnology Co., Ltd. Tranzol reagent (Tranzol total RNA extraction reagent, TransGen Biotech) was used to extract total RNA from tissues. 5× All-In-One RT MasterMix reverse transcription kit (Abcam, USA) and real-time quantitative PCR Master Mix (Aidlab Biotechnologies Co., Ltd) were used. Bio-Rad CFX Connect™ Real-Time PCR Detection System for qPCR was used, and 2^−ΔΔCT method was used for data analysis. The expression level of mRNA in the normal control group was set to 1, and the relative expression level of mRNA in the administration group was calculated, so as to confirm whether the active compound affected the PPAR pathway, thereby further regulating lipid metabolism.

NF-κB = NF-κB luciferase reporter gene transcriptional activity in SW480 cells; type: cell-based, human; settings: 50 μM, 6 hours, SW480 stably transfected (FIG. 3)
Procedure: NF-κB was the most important inflammatory signal pathway. SW480 human colon cancer cells stably transfected with a luciferase reporter gene driven by NF-κB were used to determine the effects of the compound of the present application and the control drug gemfibrozil on NF-κB transcriptional activity, which comprised the following steps. • (1) Cells stably transfected with NF-κB Luc were cultivated to exponential growth, inoculated at a culture medium concentration of 1×10^5/[…] in a 24-well plate, and cultured for 24 hours, the medium was discarded, and the test compound or gemfibrozil formulated with serum-free medium at 50 μM were added to the 24-well plate and incubation was continued for 6 hours. After washing once with 200 μL of PBS, 100 μL of reporter gene cell lysis buffer was added, the cells were lysed on ice for 10 minutes, and the cell lysate was collected by pipetting. • (2) After centrifugation was performed at 8000 rpm and 4° C. for 10 min, the supernatant was pipetted for fluorescence assay. • (3) The measurement gap time of chemiluminescence analyzer was set to 2 s and the measurement time was set to 10 s. Automatic sample injection was adopted, 50 μL of luciferase assay reagent was added to each well. The reporter gene cell lysis buffer was used as a blank control. • (4) After centrifugation, the supernatant was taken, and the BCA method was used to determine the protein concentration so as to normalize the reporter gene results.

SMILES	AHDL (high density lipoprotein) [1] [mmol/L]	ALDL (low density lipoprotein) [1] [mmol/L]	ALT [1] [U/L]	AST [1] [U/L]	BUN [1] [mmol/L]	CHOL (total cholesterol) [1] [mmol/L]	CK [1] [U/L]	CREA [1] [µmol/L]	TGL (triglycerides) [1] [mmol/L]	activity of lowering triglycerides (in words) [1]	blood glucose level [1]	body fat content (MRI) [1]	weight ratio of epididymal white fat [1]	fat content in liver (Oil red O and H.E. staining) [1]	blood glucose level 14 days after the administration [1]	PGC1α mRNA expression (PGC1α)	total cholesterol content in blood (in words) [1]	activity of NF-κB reporter gene (NF-κB)
Cc1cc(OCCCC(C)(C)C(=O)O)c(C)cc1F [BJMU-3, 5-(4-fluoro-2,5-dimethylphenoxy)-2,2-dimethylpentanoic acid]	2.27 ± 0.84	0.52 ± 0.14	125.14 ± 51.99	257 ± 83	9.29 ± 3.44	4.42 ± 1.77	1674.71 ± 864.05	21.33 ± 10.52	1.86 ± 0.99	had better activity of lowering triglycerides than gemfibrozil	could significantly reduce the blood glucose level	could significantly reduce the body fat content	could significantly reduce the weight ratio of mouse epididymal fat	could significantly reduce the fat content in liver	almost returned to the normal level	significantly induced PGC1α mRNA expression	–	–
Cc1ccc(C)c(OCCCC(C)(C)C(=O)O)c1 [gemfibrozil, Gemfibrozil, reference compound]	2.68 ± 0.31	0.7 ± 0.16	134.14 ± 38.71	235.14 ± 41.06	11.96 ± 2.26	5.37 ± 0.88	1222.14 ± 392.96	22.29 ± 3.45	1.86 ± 0.66	–	did not exhibit significant hypoglycemic activity	did not show an activity of reducing body fat	–	did not exhibit the aforementioned activity	–	could not activate PGC1α expression	did not show an activity of lowering total cholesterol in blood	could not inhibit the activity of NF-κB reporter gene
Cc1cc(OCCCC(C)(C)C(=O)O)c(C)cc1Br [BJMU-2, 5-(4-bromo-2,5-dimethylphenoxy)-2,2-dimethylpentanoic acid]	2.15 ± 0.29	0.48 ± 0.05	115.57 ± 39.12	233.67 ± 47.75	11.95 ± 1.81	3.78 ± 0.45	1406.33 ± 458.77	22.5 ± 7.12	1.73 ± 0.41	had better activity of lowering triglycerides than gemfibrozil	could significantly reduce the blood glucose level	could significantly reduce the body fat content	could significantly reduce the weight ratio of mouse epididymal fat	could significantly reduce the fat content in liver	almost returned to the normal level	significantly induced PGC1α mRNA expression	could reduce total cholesterol content in blood	could significantly inhibit the activity of NF-κB reporter gene
Cc1cc(OCCCC(C)(C)C(=O)O)c(C)cc1Cl [BJMU-1, 5-(4-chloro-2,5-dimethylphenoxy)-2,2-dimethylpentanoic acid]	2.34 ± 0.24	0.49 ± 0.06	114.86 ± 51.2	216.43 ± 60.6	9.89 ± 1.31	4.85 ± 0.7	1297.71 ± 814.48	19 ± 1.63	1.77 ± 0.65	had better activity of lowering triglycerides than gemfibrozil	could significantly reduce the blood glucose level	could significantly reduce the body fat content	–	could significantly reduce the fat content in liver	almost returned to the normal level	significantly induced PGC1α mRNA expression	–	could significantly inhibit the activity of NF-κB reporter gene
